{
  "source": "patent US11919901B2",
  "about": "(Syndax Pharmaceuticals, Inc., priority 2021, dated 2024)",
  "key": {"Menin-MLL": {"biological_target": "Menin-MLL (Homo sapiens (Human), UniProt O00255)", "sequence (O00255 whole entry)": "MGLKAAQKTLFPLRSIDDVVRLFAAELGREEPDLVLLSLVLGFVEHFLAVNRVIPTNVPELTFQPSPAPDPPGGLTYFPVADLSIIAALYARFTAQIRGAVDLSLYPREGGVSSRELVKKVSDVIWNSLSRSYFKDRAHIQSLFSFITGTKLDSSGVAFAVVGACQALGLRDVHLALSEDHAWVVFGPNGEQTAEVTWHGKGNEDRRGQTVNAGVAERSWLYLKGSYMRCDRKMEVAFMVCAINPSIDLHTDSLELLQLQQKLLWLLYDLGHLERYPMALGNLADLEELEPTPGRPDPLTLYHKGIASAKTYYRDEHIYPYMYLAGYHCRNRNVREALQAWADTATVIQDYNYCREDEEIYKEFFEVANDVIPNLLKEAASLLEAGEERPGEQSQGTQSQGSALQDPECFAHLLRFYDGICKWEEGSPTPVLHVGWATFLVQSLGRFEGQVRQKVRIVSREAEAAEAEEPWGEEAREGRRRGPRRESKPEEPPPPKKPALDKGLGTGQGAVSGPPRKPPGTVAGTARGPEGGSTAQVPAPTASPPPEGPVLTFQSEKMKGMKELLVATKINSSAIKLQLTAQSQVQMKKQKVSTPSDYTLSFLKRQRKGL", "experiment": "Determination of binding constants (Ki) to Menin-MLL (HTRF)", "conditions": "HTRF, 0.25 nM H-FL-Menin, 3.2 nM FITC-MLL-4-43, 24 hr incubation; for Ki: read-out: Menin-MLL Ki HTRF Assay: Ki"}, "hERG": {"biological_target": "hERG (Homo sapiens (Human), UniProt Q12809)", "sequence (Q12809 whole entry)": "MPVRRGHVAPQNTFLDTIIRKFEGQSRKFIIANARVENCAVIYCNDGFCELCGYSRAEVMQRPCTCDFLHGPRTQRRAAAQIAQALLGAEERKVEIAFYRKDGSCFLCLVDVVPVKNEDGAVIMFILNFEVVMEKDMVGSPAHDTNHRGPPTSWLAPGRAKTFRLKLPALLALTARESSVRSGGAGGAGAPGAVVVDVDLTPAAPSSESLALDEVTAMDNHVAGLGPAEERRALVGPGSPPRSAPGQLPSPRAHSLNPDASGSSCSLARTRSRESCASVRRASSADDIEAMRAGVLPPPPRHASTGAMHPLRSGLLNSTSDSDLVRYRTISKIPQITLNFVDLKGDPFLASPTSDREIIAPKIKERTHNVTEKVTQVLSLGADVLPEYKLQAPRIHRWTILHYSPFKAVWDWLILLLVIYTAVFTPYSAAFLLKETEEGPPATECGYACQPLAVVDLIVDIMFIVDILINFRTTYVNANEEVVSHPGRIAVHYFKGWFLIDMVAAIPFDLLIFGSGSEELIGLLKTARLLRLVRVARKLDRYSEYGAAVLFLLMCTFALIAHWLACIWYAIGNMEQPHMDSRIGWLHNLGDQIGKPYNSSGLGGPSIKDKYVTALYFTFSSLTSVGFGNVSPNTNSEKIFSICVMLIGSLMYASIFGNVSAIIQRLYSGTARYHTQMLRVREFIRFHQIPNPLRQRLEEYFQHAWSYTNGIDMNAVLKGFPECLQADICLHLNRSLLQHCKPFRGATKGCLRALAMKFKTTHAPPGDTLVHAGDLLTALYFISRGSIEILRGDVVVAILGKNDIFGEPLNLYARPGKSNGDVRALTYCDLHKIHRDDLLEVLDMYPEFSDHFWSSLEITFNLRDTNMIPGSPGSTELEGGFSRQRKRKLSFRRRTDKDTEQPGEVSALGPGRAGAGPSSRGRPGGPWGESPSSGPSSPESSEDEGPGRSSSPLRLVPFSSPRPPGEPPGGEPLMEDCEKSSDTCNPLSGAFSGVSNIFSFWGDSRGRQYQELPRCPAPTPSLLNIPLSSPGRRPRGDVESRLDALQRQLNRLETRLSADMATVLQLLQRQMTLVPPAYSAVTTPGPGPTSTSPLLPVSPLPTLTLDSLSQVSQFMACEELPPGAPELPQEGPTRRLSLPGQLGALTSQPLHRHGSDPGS", "experiment": "Patch clamp assay (hERG tail currents, whole-cell)", "type": "cell-based", "conditions": "hERG transfected HEK 293 cells; for hERG % Remaining 10 μM: 10 μM compound; for hERG % Remaining 30 μM: 30 μM compound", "description": "The 35 mm culture dishes upon which cells were seeded at a density allowing single cells to be recorded were placed on the dish holder of the microscope and continuously perfused (at approximately 1 mL/min) with the bath solution described in section 4.6. All solutions applied to cells including the pipette solution were maintained at room temperature (19° C. to 30° C.). After formation of a Gigaohm seal between the patch electrodes and individual hERG stably transfected HEK 293 cells (pipette resistance range: 2.0 MΩ2 to 7.0 MΩ; seal resistance range: >1GΩ) the cell membrane across the pipette tip was ruptured to assure electrical access to the cell interior (whole-cell patch-configuration). In case the quality of the seal was poor, the process of seal formation was repeated with a different cell and a new pipette. As soon as a stable seal could be established, hERG outward tail currents were measured upon depolarization of the cell membrane to +20 mV for 2s (activation of channels) from a holding potential of −80 mV and upon subsequent repolarization to −40 mV for 3 s. This voltage protocol (as shown below) was run at least 10 times at intervals of 10 s. If current density was judged to be too low for measurement, another cell was recorded.\nDuring wash-in of the test item the voltage protocol indicated above was run continuously again at 10 s intervals until the steady-state level of block was reached.\nThe IC50 was determined by fitting the dose response curve with a 2-parameter logistic function (amax=100%)."}},
  "data": [
    {"smiles": "CC(C)N(C(=O)c1cc(F)ccc1Oc1cncnc1N1CC2(CCN(C[C@@H]3CC[C@@H](NS(=O)(=O)N(C)C)CO3)CC2)C1)C1CC1", "note": "[Compound 93, N-Cyclopropyl-2-((4-(7-(((2S,5R)-5-((N,N-dimethylsulfamoyl)amino)tetrahydro-2H-pyran-2-yl)methyl)-2,7-diazaspiro[3.5]nonan-2-yl)pyrimidin-5-yl)oxy)-5-fluoro-N-isopropylbenzamide]", "values": [
      {"measurement": "EC50", "setting": "Menin-MLL", "result": "< 50", "unit": "nM"},
      {"measurement": "Ki", "setting": "Menin-MLL", "result": "< 1", "unit": "nM"},
      {"measurement": "hERG % Remaining 1 μM", "setting": "hERG; 1 μM compound", "result": "+++ (“+++” means ≥66%)"},
      {"measurement": "hERG % Remaining 3 μM", "setting": "hERG; 3 μM compound", "result": "+++ (“+++” means ≥66%)"},
      {"measurement": "hERG % Remaining 10 μM", "setting": "hERG", "result": "+++ (“+++” means ≥66%)"},
      {"measurement": "hERG % Remaining 30 μM", "setting": "hERG", "result": "++ (“++” means ≥33% and <66%)"},
      {"measurement": "hERG % Remaining 100 μM", "setting": "hERG; 100 μM compound", "result": "+ (“+” means <33%)"},
      {"measurement": "IC50", "setting": "hERG", "result": "≥ 50000", "unit": "nM"}
    ]},
    {"smiles": "CC(C)N(C(=O)c1cc(F)ccc1Oc1cncnc1N1CC2(CCN(C[C@@H]3CC[C@@H](NS(=O)(=O)c4cnn(C)c4)CO3)CC2)C1)C1CC(F)(F)C1", "note": "[Compound 156, N-(3,3-Difluorocyclobutyl)-5-fluoro-N-isopropyl-2-((4-(7-(((2S,5R)-5-((1-methyl-1H-pyrazole)-4-sulfonamido)tetrahydro-2H-pyran-2-yl)methyl)-2,7-diazaspiro[3.5]nonan-2-yl)pyrimidin-5-yl)oxy)benzamide]", "values": [
      {"measurement": "Ki", "setting": "Menin-MLL", "result": "< 1", "unit": "nM"},
      {"measurement": "hERG % Remaining 30 μM", "setting": "hERG", "result": "+++ (“+++” means ≥66%)"}
    ]},
    {"smiles": "CC(C)N(C(=O)c1cc(F)ccc1Oc1cncnc1N1CC2(CCN(C[C@@H]3CC[C@@H](NS(=O)(=O)c4ccn(C)n4)CO3)CC2)C1)C(C)C", "note": "[Compound 87, 5-Fluoro-N,N-diisopropyl-2-((4-(7-(((2S,5R)-5-((1-methyl-1H-pyrazole)-3-sulfonamido)tetrahydro-2H-pyran-2-yl)methyl)-2,7-diazaspiro[3.5]nonan-2-yl)pyrimidin-5-yl)oxy)benzamide]", "values": [
      {"measurement": "Ki", "setting": "Menin-MLL", "result": "< 1", "unit": "nM"},
      {"measurement": "hERG % Remaining 30 μM", "setting": "hERG", "result": "+++ (“+++” means ≥66%)"}
    ]},
    {"smiles": "CCN(CC)S(=O)(=O)N[C@@H]1CC[C@@H](CN2CCC3(CC2)CN(c2ncncc2Oc2ccc(F)cc2C(=O)N(C(C)C)[C@H]2CCOC2)C3)OC1", "note": "[Compound 175, 2-((4-(7-(((2S,5R)-5-((N,N-Diethylsulfamoyl)amino)tetrahydro-2H-pyran-2-yl)methyl)-2,7-diazaspiro[3.5]nonan-2-yl)pyrimidin-5-yl)oxy)-5-fluoro-N-isopropyl-N-((S)-tetrahydrofuran-3-yl)benzamide]", "values": [
      {"measurement": "Ki", "setting": "Menin-MLL", "result": "< 1", "unit": "nM"},
      {"measurement": "hERG % Remaining 10 μM", "setting": "hERG", "result": "++ (“++” means ≥33% and <66%)"},
      {"measurement": "hERG % Remaining 30 μM", "setting": "hERG", "result": "+ (“+” means <33%)"}
    ]},
    {"smiles": "CCN(C(=O)c1cc(F)ccc1Oc1cncnc1N1CC2(CCN(C[C@@H]3CC[C@@H](NS(=O)(=O)c4cnc(C)o4)CO3)CC2)C1)C(C)C", "note": "[Compound 72, N-Ethyl-5-fluoro-N-isopropyl-2-((4-(7-(((2S,5R)-5-((2-methyloxazole)-5-sulfonamido)tetrahydro-2H-pyran-2-yl)methyl)-2,7-diazaspiro[3.5]nonan-2-yl)pyrimidin-5-yl)oxy)benzamide]", "values": [
      {"measurement": "Ki", "setting": "Menin-MLL", "result": "< 1", "unit": "nM"},
      {"measurement": "hERG % Remaining 10 μM", "setting": "hERG", "result": "++ (“++” means ≥33% and <66%)"},
      {"measurement": "hERG % Remaining 30 μM", "setting": "hERG", "result": "+ (“+” means <33%)"}
    ]},
    {"smiles": "CC(C)N(CC(F)F)C(=O)c1cc(F)ccc1Oc1cncnc1N1CC2(CCN(C[C@@H]3CC[C@@H](NS(N)(=O)=O)CO3)CC2)C1", "note": "[Compound 240, N-(2,2-Difluoroethyl)-5-fluoro-N-isopropyl-2-((4-(7-(((2S,5R)-5-(sulfamoylamino)tetrahydro-2H-pyran-2-yl)methyl)-2,7-diazaspiro[3.5]nonan-2-yl)pyrimidin-5-yl)oxy)benzamide]", "values": [
      {"measurement": "Ki", "setting": "Menin-MLL", "result": "< 1", "unit": "nM"},
      {"measurement": "hERG % Remaining 30 μM", "setting": "hERG", "result": "+++ (“+++” means ≥66%)"},
      {"measurement": "IC50", "setting": "hERG", "result": "≥ 50000", "unit": "nM"}
    ]},
    {"smiles": "CC(C)N(C(=O)c1cc(F)ccc1Oc1cncnc1N1CC2(CCN(C[C@@H]3CC[C@@H](NS(=O)(=O)c4cnn(C)c4)CO3)CC2)C1)C(C)C", "note": "[Compound 86, 5-Fluoro-N,N-diisopropyl-2-((4-(7-(((2S,5R)-5-((1-methyl-1H-pyrazole)-4-sulfonamido)tetrahydro-2H-pyran-2-yl)methyl)-2,7-diazaspiro[3.5]nonan-2-yl)pyrimidin-5-yl)oxy)benzamide]", "values": [
      {"measurement": "Ki", "setting": "Menin-MLL", "result": "< 1", "unit": "nM"},
      {"measurement": "hERG % Remaining 10 μM", "setting": "hERG", "result": "+++ (“+++” means ≥66%)"},
      {"measurement": "hERG % Remaining 30 μM", "setting": "hERG", "result": "+++ (“+++” means ≥66%)"},
      {"measurement": "IC50", "setting": "hERG", "result": "≥ 50000", "unit": "nM"}
    ]}
  ]
}
